Measurements as given in PubChem BioAssay AID1418 (Emory University Molecular Libraries Screening Center, 2008).
pIC50: −log10 of the molar value. Active and inactive are the calls of the source. The rule behind the calls is not given here.

What follows are molecules tested against Induced myeloid leukemia cell differentiation protein Mcl-1 (Homo sapiens) (UniProt Q07820) (assay: blockers of Bid binding to Mcl-1 – biochemical, TR-FRET, dose response (AID 1418)). Conditions: Mcl-1/Bid peptide binding, TR-FRET (europium/Dy647), 2 hr.
Chain of Induced myeloid leukemia cell differentiation protein Mcl-1 (Homo sapiens) (Q07820 whole entry, looked up): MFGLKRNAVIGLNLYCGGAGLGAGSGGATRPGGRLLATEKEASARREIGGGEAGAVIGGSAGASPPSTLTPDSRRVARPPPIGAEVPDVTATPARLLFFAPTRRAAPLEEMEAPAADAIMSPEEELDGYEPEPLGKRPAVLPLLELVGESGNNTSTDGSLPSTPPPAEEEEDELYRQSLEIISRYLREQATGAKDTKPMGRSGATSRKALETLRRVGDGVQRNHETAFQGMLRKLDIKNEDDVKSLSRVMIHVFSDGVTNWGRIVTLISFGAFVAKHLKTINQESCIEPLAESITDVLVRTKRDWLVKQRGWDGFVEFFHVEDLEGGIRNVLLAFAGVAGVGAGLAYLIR
For `O=C(Cc1c(Cl)cccc1Cl)OCC(=O)N1CCc2ccccc2C1`, the IC50 was > 54 µM (inactive). In the case of `CCC1Oc2ccc(C)cc2N(CC(=O)N(Cc2cccnc2)Cc2ccc(C)o2)C1=O` (centres undefined), the IC50 was > 54 µM (inactive). In the case of `CCOc1cc(N2CCOCC2)c(OCC)cc1NC(=O)CCS(=O)(=O)c1ccc(Cl)cc1`, the IC50 was > 54 µM (inactive). `Oc1cc2c(cc1C(c1ccc(Cl)c(Cl)c1)N1CCCC1)OCO2` (centres undefined) was tested, and the pIC50 was 6.23. In the case of `COc1ccc(Nc2ncc(C(=O)N3CCN(c4ccc(F)cc4)CC3)c3ccccc23)cc1`, the IC50 was > 54 µM (inactive). `Cc1ccc(CSc2nnc(SCC(=O)N/N=C/c3c[nH]c4ccccc34)s2)cc1` gave a pIC50 of 6.28. With `CC(=O)Oc1ccc(C(c2ccc(OC(C)=O)cc2)c2ccccn2)cc1` the IC50 was > 54 µM (inactive). In the case of `O=C(CN(C(=O)CNC(=O)c1ccco1)c1ccc2c(c1)OCO2)NC1CCCCC1`, the IC50 was > 54 µM (inactive). `Cc1cc(C)c(S(=O)(=O)/N=C2/C=C(Sc3ncn[nH]3)C(=O)c3ccccc32)cc1C` showed a pIC50 of 5.92. `COc1ccc2nc(NC(=O)c3cccc(-c4cc5ccccc5oc4=O)c3)sc2c1` gave a pIC50 of 6.05. In the case of `Cc1cc(-c2nc3c4c5c(sc4[nH]c(=O)n3n2)CCC5)c(C)o1`, the IC50 was > 54 µM (inactive). `O=C(CN1CCN(CCN2C(=O)c3cccc4cccc(c34)C2=O)CC1)c1ccc(F)cc1` was tested, and the IC50 was > 54 µM (inactive). `O=C(O)c1ccc(N2C(=O)/C(=C/c3ccc(-c4ccc([N+](=O)[O-])cc4)o3)C=C2c2ccccc2)cc1` was tested, and the pIC50 was 5.85. For `N#Cc1cccc(NC(=O)CSc2ccc3c4c(cccc24)C(=O)c2ccccc2-3)c1`, the pIC50 was 5.58. With `Cc1cc(C)cc(N(CC(=O)NC2CCC(C)CC2)S(=O)(=O)c2c(C)noc2C)c1` (centres undefined) the IC50 was > 54 µM (inactive). `CC(C)(C)c1c(Cl)c(O)c(-c2ccccc2)c(=O)n1-c1ccccc1` showed a pIC50 of 6.17. With `O=C(N/N=C/C(Br)=C\c1ccccc1)c1ccco1` the IC50 was > 54 µM (inactive). For `CCOC(=O)c1c(/N=C/C2C(=O)NC(=S)NC2=O)sc(C)c1C`, the pIC50 was 5.68. `COCC(=O)Nc1ncc(S(=O)(=O)c2ccc([N+](=O)[O-])cc2)s1` was tested, and the IC50 was > 54 µM (inactive). With `COc1ccccc1N1CCN(CC(=O)c2c(C)[nH]c3ccccc23)CC1` the IC50 was > 54 µM (inactive). In the case of `O=C(Nc1ccc(F)cc1)Nc1ccc(Oc2ncnc3cc(Cl)ccc23)nc1`, the IC50 was > 54 µM (inactive). In the case of `CC1CCCN(C(=S)Nc2ccc3nc4n(c(=O)c3c2)CCCCC4)C1` (centres undefined), the IC50 was > 54 µM (inactive). With `NC(=S)N/N=C/c1coc2c(ccc3ccccc32)c1=O` the pIC50 was 5.30. With `c1ccc2nc3ccccc3nc2c1` the IC50 was > 54 µM (inactive). `COc1ccc2c(=O)c3c(=O)n(CCc4ccccc4)c(C(C)C)nc3oc2c1` was tested, and the IC50 was > 54 µM (inactive). Molecule `CCOC(=O)c1c(NC(=O)N/N=C/c2ccc(O)c(OC)c2)sc(C(C)=O)c1C` has a pIC50 of 6.28. Work on `Cc1ccc2nc(-c3ccc(SCC(=O)Nc4nnc(C)s4)nc3)[nH]c2c1` yielded a pIC50 of 5.07. With `CCCCN(Cc1cc2cc(OC)ccc2[nH]c1=O)C(=O)c1ccccn1` the IC50 was > 54 µM (inactive). In the case of `CCCCCSc1nnc2c(n1)OC(c1cccn1C)N(C(C)=O)c1ccccc1-2` (centres undefined), the IC50 was > 54 µM (inactive). In the case of `Cc1nc(SCC(=O)Nc2cc(Cl)ccc2[N+](=O)[O-])nc(C)c1C`, the IC50 was > 54 µM (inactive). `Cc1cccc(N2CCN(C(=S)Nc3ccc4nc(N5CCN(C)CC5)cc(C)c4c3)CC2)c1C` gave a pIC50 of 5.53. `CN(C)C(=O)/C(C#N)=C\c1cc(Br)c(Sc2ccc(Cl)cc2)o1` was tested, and the IC50 was > 54 µM (inactive). `CC(C)(C)NC(=O)c1sccc1C(=O)O` was tested, and the IC50 was > 54 µM (inactive). In the case of `CSc1nc(N(C)CCO)c2sc3nc(-c4ccco4)c4c(c3c2n1)CCC4`, the IC50 was > 54 µM (inactive). In the case of `CCOc1ccc(N2C(=O)c3cccnc3C2Nc2ccc(F)cc2)cc1` (centres undefined), the IC50 was > 54 µM (inactive). Molecule `O=C(O)c1cc(-c2ccc(/C=C3/SC(=S)N(Cc4ccccc4)C3=O)o2)ccc1Cl` has a pIC50 of 5.77. For `N=C1/C(=C/c2ccc(-c3cccc(C(=O)O)c3)o2)C(=O)N=C2SC=C(c3ccccc3)N12`, the pIC50 was 5.99. With `O=C(N=Nc1c(O)[nH]c2ccc([N+](=O)[O-])cc12)c1cc(-c2ccccc2Cl)nc2ccccc12` the pIC50 was 6.09. In the case of `O=C(CSc1nc(-c2ccccc2)nc2c1Cc1ccccc1O2)Nc1ccc(C(=O)O)cc1`, the pIC50 was 5.52. `Cc1cc2nc(-c3ccc(NC(=O)C(C)C)cc3)oc2cc1C` showed a pIC50 of 5.52. In the case of `Cc1cc(N/N=C/c2ccc(O)c(C)c2O)nc(-c2ccccc2O)n1`, the pIC50 was 5.04. `C=CCn1cc(C(=O)NCc2ccco2)c(=O)c2cc(S(=O)(=O)N3CCCCCC3)ccc21` was tested, and the IC50 was > 54 µM (inactive). For `COc1cc(OC)c2c(O)c3c(c(-c4c5c(c(O)c6c(OC)cc(OC)cc46)CO[C@@H](C)[C@H]5O)c2c1)[C@H](O)[C@H](C)OC3`, the pIC50 was 4.84. `NC(=S)n1[nH]c(-c2ccc([N+](=O)[O-])cc2)c(N=Nc2ccccc2[N+](=O)[O-])c1=O` was tested, and the pIC50 was 5.49. For `Nc1nnc(SCC(=O)N2CCN(c3ccccc3)CC2)n1-c1ccccc1`, the IC50 was > 54 µM (inactive). In the case of `Cc1ccc(C)c(C(=O)COC(=O)CCCC(=O)Nc2cc(C(F)(F)F)ccc2Cl)c1`, the IC50 was > 54 µM (inactive). In the case of `O=C(O)c1[nH]c2ccccc2c1C=NCc1ccccc1Cl`, the IC50 was > 54 µM (inactive). In the case of `O=C(CN1C(=O)/C(=C2\SC(=S)N(C3CCS(=O)(=O)C3)C2=O)c2ccccc21)Nc1ccc(F)cc1` (centres undefined), the pIC50 was 6.14. With `CCOC(=O)C1CCN(C(=O)c2cc(S(=O)(=O)N3CCOCC3)c(Cl)cc2Cl)CC1` the IC50 was > 54 µM (inactive). `COc1cc2c(cc1OC)CN(CC(=O)Nc1ccc(C#N)cc1)CC2` was tested, and the IC50 was > 54 µM (inactive). `CCN(CC)c1ccc(NC(=O)Cn2ncc3c(C)n(Cc4ccccc4F)c(C)c3c2=O)c(C)c1` was tested, and the pIC50 was 6.28. With `O=C(CCN1CCc2ccccc2C1)Nc1cccc(F)c1` the IC50 was > 54 µM (inactive). `CC(=O)Cc1cc(O)c2ccccc2c1OC(=O)c1ccc(Br)cc1` was tested, and the IC50 was > 54 µM (inactive). For `O=C1N=c2ccccc2=C1c1c(O)n(-c2cccc(F)c2)[nH]c1=O`, the pIC50 was 5.81. In the case of `COc1cc(OC)cc(C(=O)Nc2ccc(-c3nc4ccccc4o3)c(O)c2)c1`, the pIC50 was 5.44. For `CCc1nnc(NS(=O)(=O)c2ccc(NC(=S)NC(=O)/C=C/c3ccc(C(C)C)cc3)cc2)s1`, the pIC50 was 5.40. In the case of `O=C(O)C[C@@H]1C(=O)O[C@@H]2C(COC(=O)c3cc(O)c(O)c(O)c3)O[C@@H](OC(=O)c3cc(O)c(O)c(O)c3)[C@@H](OC(=O)c3cc(O)c(O)c4c3[C@H]1[C@H](O)C(=O)O4)[C@H]2OC(=O)c1cc(O)c(O)c(O)c1` (some centres undefined), the pIC50 was 6.02. `Cc1ccc(S(=O)(=O)N2CN3CCN(C3)C2)cc1` was tested, and the IC50 was > 54 µM (inactive). `CCS(=O)(=O)c1ccc(S(=O)(=O)CC)s1` was tested, and the IC50 was > 54 µM (inactive). `O=C(NCC1CCCO1)c1ccc(CSCc2cccc(F)c2)o1` (centres undefined) was tested, and the IC50 was > 54 µM (inactive). With `Cc1cc(O)ccc1N/C=C(\C#N)c1nc2ccccc2o1` the IC50 was > 54 µM (inactive). For `Cc1ccc(COc2ccc(C(=O)NN)cc2)cc1`, the IC50 was > 54 µM (inactive). In the case of `COc1ccc(OC)c(NC(=S)N(CCc2c(C)[nH]c3ccc(C)cc23)Cc2cccs2)c1`, the IC50 was > 54 µM (inactive). `C#CCOCCOCCOCCNc1nc(N2CCN(C(=O)[C@H](CCCCN)n3cc([C@@H](N)C(C)CC)nn3)CC2)nc(N2CCN(C(=O)[C@H](CCCCN)n3cc([C@@H](N)CO)nn3)CC2)n1` (some centres undefined) showed a pIC50 of 6.20. For `S=C(NNc1ccnc2cc(Cl)ccc12)Nc1ccc(Cl)cc1Cl`, the pIC50 was 5.65. For `O=C1c2ccccc2C(=O)N1Cc1nc2ccccc2c(=O)n1-c1cccnc1`, the IC50 was > 54 µM (inactive). For `CN1C(=O)/C(=C/c2ccccc2OCc2cccc(F)c2)NC1=S`, the IC50 was > 54 µM (inactive). With `Cc1ccc(N2CCN(C3=NC(=O)/C(=C\c4cccs4)S3)CC2)cc1` the IC50 was > 54 µM (inactive). `CC(=O)c1ccc(Oc2ccc(C(C)=O)cc2)cc1` was tested, and the IC50 was > 54 µM (inactive). Work on `COc1ccc(Cl)cc1C(Nc1cccnc1)c1ccc2cccnc2c1O` (centres undefined) yielded a pIC50 of 6.21. `CN(C)S(=O)(=O)c1cccc(NC(=O)COC(=O)c2cc3ccccc3oc2=O)c1` was tested, and the IC50 was > 54 µM (inactive). In the case of `CC(=O)Oc1ccc(Cl)cc1/C=C/c1ccc2ccccc2n1`, the IC50 was > 54 µM (inactive). `COc1cc2cc3c(N)c(C(=O)Nc4sc(C)c(C)c4C#N)sc3nc2cc1OC` was tested, and the pIC50 was 6.01. For `C=CCn1cc(/C=N/NC(=O)COc2cccc3cccnc23)c2ccccc21`, the pIC50 was 5.47. With `C=CCn1c(SCc2ccc([N+](=O)[O-])cc2)nnc1C(C)NC(=O)c1ccccc1` (centres undefined) the IC50 was > 54 µM (inactive). Work on `Cc1nc(N)sc1-c1csc(Nc2ncccn2)n1` yielded a pIC50 of 5.48. Molecule `O=C(O)CCN1C(=O)/C(=C/c2cn(-c3ccccc3)nc2-c2cccs2)SC1=S` has a pIC50 of 5.17. For `COC(=O)c1ccccc1NC(=O)COC(=O)/C=C/c1ccco1`, the IC50 was > 54 µM (inactive). For `O=C(CN1C(=O)c2ccccc2C1=O)N1CCCCC1`, the IC50 was > 54 µM (inactive). For `CC(=O)Nc1cccc(NC(=O)Nc2ccc(C(C)=O)cc2)c1`, the IC50 was > 54 µM (inactive). `CC(C)[n+]1ccn(C2=C([O-])c3ccccc3C(=O)/C2=N\S(=O)(=O)c2ccccc2)c1` was tested, and the IC50 was > 54 µM (inactive). In the case of `N#C/C(=C1/CCCCCN1)c1nc2ccccc2s1`, the IC50 was > 54 µM (inactive). `CCSc1nnc(NC(=O)C(Cc2ccccc2)n2cccc2)s1` (centres undefined) was tested, and the IC50 was > 54 µM (inactive). With `COc1ccccc1C1C(C#N)=C(N)Oc2c1c(-c1ccccc1)nn2-c1ccccc1` (centres undefined) the IC50 was > 54 µM (inactive). For `O=[N+]([O-])c1cccc(S(=O)(=O)Nc2nc3ccccc3nc2Nc2cccc(S(=O)(=O)N3CCCCC3)c2)c1`, the IC50 was “inactive”. `COc1cccc(C(=O)Nc2ccc3nc(N4CCN(c5ncccn5)CC4)cc(C)c3c2)c1OC` gave a pIC50 of 6.28. With `Cc1c(N=Nc2c(-c3ccc([N+](=O)[O-])cc3)[nH]n(C(N)=S)c2=O)cccc1[N+](=O)[O-]` the pIC50 was 5.53. In the case of `CCOc1ccc(NC(=O)CC2C(=O)N(c3ccc(OC)cc3)C(=S)N2Cc2ccccn2)cc1` (centres undefined), the IC50 was > 54 µM (inactive). In the case of `O=C(CSc1nnc(SCc2ccc(Cl)cc2)s1)N/N=C/c1c[nH]c2ccccc12`, the pIC50 was 6.36. For `CCOc1ccccc1NC(=O)CN(C)S(=O)(=O)c1cccc2nsnc12`, the IC50 was > 54 µM (inactive). `NC(=O)N1CCN(C(=O)c2ccco2)CC1` was tested, and the IC50 was > 54 µM (inactive). Molecule `Cc1ccc2c(c1)C1C=CCC1C(C(=O)O)N2` (centres undefined) has a pIC50 of 5.66. With `Cc1ccc(C(=O)CN(C(=O)c2ccc(Cl)c(Cl)c2)N2C(=O)C3C4C=CC(C4)C3C2=O)cc1` (centres undefined) the IC50 was > 54 µM (inactive). In the case of `N#Cc1cc(-c2ccccc2)nc(Oc2ccccc2)n1`, the IC50 was > 54 µM (inactive).
